According to patent publication US20260048205A1, “SYSTEMS AND METHODS FOR MIXING SYRINGE VALVE ASSEMBLIES AND SYRINGE FORMULATIONS” (Tolmar International Limited, priority 2024, published 2026):

Columns and labels:
[1] = format: physicochemical
Source text: To produce the drug/solvent bulk solution comprising the API (LA), the desired amount of the LA was combined with the solvent N-methyl-2-pyrrolidone (NMP), in the indicated amounts (see individual experiments below). The API and solvent were combined in a glass vial or jar. Jars were mixed using the jar mill, Turbula, or shaker at room temperature until homogeneous. LA is soluble in NMP and can load higher concentrations (at least 40% w/w). After dissolving the API in the organic solvent, the bulk solution was manually filled into syringes and capped with a tip cap. The syringes used for filling were either 1.2 mL male polypropylene syringes, 1.2 mL male cyclic olefin copolymer syringes or 1 mL male cyclic olefin copolymer syringes. In some instances, the two syringes were coupled via the connector prior to packaging. Filled syringes were then packaged in labeled foil pouches or a plastic tray pack with foil lid with a Syringe A (polymer-solvent solution) and a desiccant pack and the pouches were sealed. After filling the syringes with the formulations, they were terminally sterilized with an external radiation dose of more than 15 kGy and less than 60 kGy from irradiation processing (E-beam, Gamma or X-ray). After terminal sterilization, the syringes were stored under refrigerated conditions (e.g., 2-8° C.) or accelerated conditions (>25° C. see individual experiments).

LA gelation studies = format: physicochemical; conditions: drug solution in NMP; e-beam irradiated; 60° C., 150 rpm, up to 16 days
Description: Drug solutions were prepared as described above and filled into syringes or glass vials. Syringes were untreated, contained various amounts of silicone, or were plasma coated for lubrication. Samples were irradiated by e-beam irradiation at not less than 25 kGy and stored at accelerated conditions of 60° C. with agitation at 150 rpm for up to 16 days. Samples were inspected periodically to determine if the drug solution remained a solution or had formed a solid/gel by an inversion test. Samples that had “gelled” were transferred to 5° C. for subsequent testing. The gelation rate for each sample was calculated as Rate=1/(simulated 5° C. age at time of gelation in days). The Arrhenius equation was used to determine the simulated age, assuming standard reaction rate doubling for every 10° C. increase in temperature. […] Data was analyzed using JMP. […] Container type and lubrication were not significant. Samples were tested for leuprolide content by HPLC. Leuprolide content was then converted to leuprolide acetate by multiplying by 1.078 (based on molecular mass ratios). A marked difference in leuprolide acetate content between the gelled and non-gelled samples was seen, with the tipping point between solution and solid/gelled samples occurring at about 45% LA.

CCNC(=O)[C@@H]1CCCN1C(=O)[C@H](CCCNC(=N)N)NC(=O)[C@H](CC(C)C)NC(=O)[C@@H](CC(C)C)NC(=O)[C@H](Cc1ccc(O)cc1)NC(=O)[C@H](CO)NC(=O)[C@H](Cc1c[nH]c2ccccc12)NC(=O)[C@H](Cc1c[nH]cn1)NC(=O)[C@@H]1CCC(=O)N1 [LA, leuprolide acetate]
solubility / loading in NMP [1]: at least 40 % w/w | tipping point between solution and solid/gelled samples (LA gelation studies): about 45 % LA
